Converted amounts (≈) assume the structure as drawn.

For this experiment, the system named is Mycobacterium tuberculosis. The experiment can be described thus: Antitubercular activity against Mycobacterium tuberculosis H37Rv. The class given is functional.

`CCCCCCCCCCCCCCCCCC(=O)NCCCNC[C@H]1O[C@@H]2OC(C)(C)O[C@@H]2[C@H]2OC(C)(C)O[C@H]21`: inhibition of growth (MIC) required 12.5 µg/mL (≈ 21.4 µM).

Compound `CCCCCCCCCCCCCCCCCC(=O)NCCNC[C@H]1O[C@@H]2OC(C)(C)O[C@@H]2[C@H]2OC(C)(C)O[C@H]21` returned an MIC of under 3.12 µg/mL.

`CCCCCCCCCCCCCCCC(=O)NCCN(C[C@H]1O[C@@H]2OC(C)(C)O[C@@H]2[C@H]2OC(C)(C)O[C@H]21)C(=O)CCCCCCCCCCCCCCC` registered an MIC of over 50 µg/mL.

Take `CC1(C)O[C@H]2[C@@H](O1)[C@@H](CNCCO)O[C@@H]1OC(C)(C)O[C@@H]12`: the MIC was over 50 µg/mL.

The compound `CO[C@H]1/C=C/O[C@@]2(C)Oc3c(C)c(O)c4c(O)c(c(/C=N/N5CCN(C)CC5)c(O)c4c3C2=O)NC(=O)/C(C)=C\C=C\[C@H](C)[C@H](O)[C@@H](C)[C@@H](O)[C@@H](C)[C@H](OC(C)=O)[C@@H]1C` [RIFAMPIN] showed an MIC of 1 µg/mL (≈ 1.22 µM).

As for `CCCCCCCCCCCCCCCCCC(=O)NCCCN(C[C@H]1OC(O)[C@H](O)[C@@H](O)[C@H]1O)C(=O)CCCCCCCCCCCCCCCCC` (stereo partly specified), the MIC is over 50 µg/mL.

With `CCCCCCCCCCCCCCCCCC(=O)N(CCO)C[C@H]1O[C@@H]2OC(C)(C)O[C@@H]2[C@H]2OC(C)(C)O[C@H]21`, it took 25 µg/mL (≈ 43.9 µM) to inhibit growth (MIC).

Consider `CC1(C)O[C@H]2[C@@H](O1)[C@@H](CNCCCN)O[C@@H]1OC(C)(C)O[C@@H]12`, for which the MIC is over 50 µg/mL.

`CCCCCCCCCCCCCCCCCC(=O)OCCN(C[C@H]1O[C@@H]2OC(C)(C)O[C@@H]2[C@H]2OC(C)(C)O[C@H]21)C(=O)CCCCCCCCCCCCCCCCC` showed an MIC of over 50 µg/mL.

In the case of `CCCCCCCCCCCCCCCC(=O)NCCCN(C[C@H]1O[C@@H]2OC(C)(C)O[C@@H]2[C@H]2OC(C)(C)O[C@H]21)C(=O)CCCCCCCCCCCCCCC`, the MIC is over 50 µg/mL.

For `CCCCCCCCCCCCCCCCCC(=O)NCCN(C[C@H]1OC(O)[C@H](O)[C@@H](O)[C@H]1O)C(=O)CCCCCCCCCCCCCCCCC` (stereo partly specified), the MIC was over 50 µg/mL.

As usually defined, the MIC is the lowest concentration found to suppress growth.

For the origin of these results see ChEMBL document CHEMBL1148009, “Synthesis of amphiphilic galactopyranosyl diamines and amino alcohols as antitubercular agents” (2007).
